Measurements taken from patent publication US8785453B2, “Arylpiperazine-containing purine derivatives and uses thereof” (Green Cross Corporation, priority 2009, dated 2014).

Key:
[1] = tested on: mice; assay: Synergy effect of the inventive compound combined with conventional anti-depressants in forced swimming test; assay type: in vivo; conditions: for anti-immobility effect in FST, anti-depressant alone: 25 mg/kg p.o.
Description: Each drug or vehicle was suspended in 3% Tween 80 solution and administered orally (p.o.) 60 min before forced swimming test.

[2] = molecular target: T1, human recombinant serotonin 5-HT2A receptor (Homo sapiens, UniProt P28223); assay: Binding affinity for serotonin 5-HT2A receptor ([3H]Ketanserin); conditions: CHO-K1 cells, 1 nM [3H]Ketanserin; read-out: binding affinity (IC50) 5-HT2A
T1 construct: purchased PerkinElmer Life and Analytical Sciences, USA; host or cells: CHO-K1 cells
T1 sequence (P28223 whole entry): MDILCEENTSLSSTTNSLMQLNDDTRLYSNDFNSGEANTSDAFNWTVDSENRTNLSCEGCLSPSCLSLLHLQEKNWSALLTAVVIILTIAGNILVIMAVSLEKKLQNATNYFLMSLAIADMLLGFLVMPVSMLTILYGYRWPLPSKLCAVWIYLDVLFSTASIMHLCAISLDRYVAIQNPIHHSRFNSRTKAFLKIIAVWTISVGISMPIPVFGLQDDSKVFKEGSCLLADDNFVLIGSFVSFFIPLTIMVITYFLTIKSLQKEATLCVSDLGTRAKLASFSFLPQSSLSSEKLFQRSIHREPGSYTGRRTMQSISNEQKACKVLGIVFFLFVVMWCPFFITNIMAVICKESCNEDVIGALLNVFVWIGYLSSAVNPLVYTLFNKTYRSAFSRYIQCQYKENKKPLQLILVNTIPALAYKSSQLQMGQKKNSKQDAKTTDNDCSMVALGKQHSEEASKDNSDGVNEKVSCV
Description: (§1) Receptor binding affinities of the compounds for serotonin receptors were measured by the method described in the literature (see [Park W K et al., Pharmacol Biochem Behav., 82(2), 361-372 (2005)].
For serotonin 5-HT2A binding, an aliquot of human recombinant serotonin 5-HT2A receptor (PerkinElmer Life and Analytical Sciences, USA) expressed in CHO-K1 cells (5 μg/well) and 1 nM [^3H]Ketanserin (PerkinElmer) were used in the presence of mianserin (20 μM) as a nonspecific. The reaction mixture was incubated for 60 min […] 50 mM Tris-HCl (pH 7.4) buffer containing 4 mM CaCl2 and 0.1% ascorbic acid, and harvested through filtermate A glass fiber filter (Wallac, Finland) presoaked in 0.5% polyethyleneimine (PEI) by microbeta filtermate-96 harvester (PerkinElmer) to terminate the reaction, and then washed with ice cold 50 mM Tris-HCl buffer solution (pH 7.4). The filter was then covered with MeltiLex, sealed in a sample bag, dried in an oven. The radioactivity retained in the filter was finally counted using MicroBeta Plus (Wallac).
(§2) The binding affinity (IC50) of a compound for the receptor was calculated by computerized nonlinear regression analysis (GraphPad Prism Program, San Diego, USA) using 7-8 varied concentrations of the compound run in duplicate tubes.

[3] = molecular target: T2, human recombinant 5-HT2C receptor (Homo sapiens, UniProt P28335); assay: Binding affinity for serotonin 5-HT2C receptor ([3H]Mesulergine); conditions: CHO-K1 membranes, 1.3 nM [3H]Mesulergine; read-out: binding affinity (IC50) 5-HT2C
T2 construct: purchased PerkinElmer
T2 sequence (P28335 33-458): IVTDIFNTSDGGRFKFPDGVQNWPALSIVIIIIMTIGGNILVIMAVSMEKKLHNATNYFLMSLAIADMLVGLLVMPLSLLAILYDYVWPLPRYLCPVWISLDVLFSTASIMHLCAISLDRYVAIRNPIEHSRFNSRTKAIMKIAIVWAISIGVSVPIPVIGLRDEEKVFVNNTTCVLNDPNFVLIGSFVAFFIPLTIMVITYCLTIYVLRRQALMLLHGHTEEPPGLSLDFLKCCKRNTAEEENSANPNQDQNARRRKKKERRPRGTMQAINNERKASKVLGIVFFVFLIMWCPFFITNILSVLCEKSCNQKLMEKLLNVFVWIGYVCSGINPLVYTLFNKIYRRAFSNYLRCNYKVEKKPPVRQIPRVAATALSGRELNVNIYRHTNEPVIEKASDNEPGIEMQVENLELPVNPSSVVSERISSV
Description: as §1, §2
For serotonin 5-HT2C binding, frozen membranes from stable CHO-K1 cell line expressing the human recombinant 5-HT2C receptor (PerkinElmer, 4 μg/well), [^3H]Mesulergine (Amersham, 1.3 nM) and test compounds were added into 50 mM Tris-HCl (pH 7.4) buffer containing 0.1% ascorbic acid and 4 mM CaCl2. Nonspecific binding was determined using 100 μM mianserin. The incubations were performed for 60 min at 27, and these were terminated by rapid filtration through filtermate A glass fiber filter presoaked in 0.5% PEI.

[4] = molecular target: T3, human serotonin transporter (Homo sapiens, UniProt P31645); assay: Binding affinity for serotonin transporter ([3H]Imipramine); conditions: HEK-293 membrane, 2 nM [3H]Imipramine; read-out: binding affinity Serotonin Transporter
T3 construct: purchased PerkinElmer; host or cells: HEK-293 cells
T3 sequence (P31645 whole entry): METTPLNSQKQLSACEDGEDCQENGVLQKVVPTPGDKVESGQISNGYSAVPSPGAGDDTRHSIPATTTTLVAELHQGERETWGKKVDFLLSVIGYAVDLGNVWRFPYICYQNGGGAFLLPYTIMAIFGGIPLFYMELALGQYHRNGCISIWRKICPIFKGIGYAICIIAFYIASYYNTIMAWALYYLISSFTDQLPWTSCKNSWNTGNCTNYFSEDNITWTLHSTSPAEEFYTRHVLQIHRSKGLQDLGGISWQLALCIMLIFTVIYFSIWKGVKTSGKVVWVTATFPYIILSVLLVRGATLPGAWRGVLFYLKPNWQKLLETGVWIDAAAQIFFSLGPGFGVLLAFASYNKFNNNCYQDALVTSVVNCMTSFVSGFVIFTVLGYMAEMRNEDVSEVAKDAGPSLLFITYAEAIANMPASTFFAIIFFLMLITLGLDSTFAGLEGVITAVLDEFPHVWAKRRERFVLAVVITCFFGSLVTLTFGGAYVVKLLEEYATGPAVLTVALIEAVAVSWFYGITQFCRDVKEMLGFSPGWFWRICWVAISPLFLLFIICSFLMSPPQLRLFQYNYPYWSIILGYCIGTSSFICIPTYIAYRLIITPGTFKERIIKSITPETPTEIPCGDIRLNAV
Description: For serotonin transporter binding assays, a reaction mixture with a final volume of 0.25 ml was prepared by mixing a test compound, human serotonin transporter membrane expressed in HEK-293 cells (PerkinElmer, 5 μg/well), [^3H] Imipramine (PerkinElmer, 2 nM) and 50 mM Tris-HCl (pH 7.4) buffer containing 120 mM NaCl and 5 mM KCl. The reaction mixture was incubated for 30 min at 27, and harvested through filtermate A glass fiber filter presoaked in 0.5% PEI with ice cold 50 mM Tris-HCl buffer (pH 7.4) containing 0.9% NaCl.

[5] = tested on: mice; assay: Anti-depressants activity in forced swimming test; assay type: in vivo; conditions: 60 min before testing
Description: Each mouse was placed in a 25 cm glass cylinder (10 cm diameter) containing 15 cm of water maintained at 22±1, and was forced to swim for 10 min. 24 hours later, the mouse was replaced into the cylinder and the total duration of immobility was recorded during the last 5 min of the 6-min testing period. Mice are judged immobile when they float in an upright position and make only small movements to keep their head above water. Test drugs were suspended in 3% Tween 80 solution, and administered orally (po) 60 min before the testing.

Row | SMILES | anti-immobility effect in FST, anti-depressant alone [1] | IC50 [2] | IC50 [3] | IC50 [4] | Immobility in forced swimming test ([5]; 25 mg/kg po) | Immobility in forced swimming test ([5]; 50 mg/kg po) | efficacy in forced swimming test, compound alone ([1]; 12.5 mg/kg or 25 mg/kg p.o.)
1 | COc1ccc(C(CN(C)C)C2(O)CCCCC2)cc1 (centres unmarked) [Effexor] | did not improve the anti-immobility effect |  |  |  |  |  | 
2 | Cc1cccc(N2CCN(CCCNc3ncnc4c3nc(C)n4-c3ccc4c(c3)OCCO4)CC2)c1C [Example 43, 9-(2,3-dihydrobenzo[b][1,4]dioxin-6-yl)-N-(3-(4-(2,3-dimethylphenyl)piperazin-1-yl)propyl)-8-methyl-9H-purine-6-amine] |  | 0.014 µM | 0.118 µM | 0.016 µM | 81.26 ± 11.85% |  | 
3 | Cc1cccc(N2CCN(CC(O)CNc3ncnc4c3nc(C)n4-c3ccc4c(c3)OCCO4)CC2)c1C (centres unmarked) [Example 44, 1-(9-(2,3-dihydrobenzo[b][1,4]dioxin-6-yl)-8-methyl-9H-purin-6-ylamino)-3-(4-(2,3-dimethylphenyl)piperazin-1-yl)propan-2-ol] |  | 0.054 µM | 0.51 µM | 0.065 µM | 80.41 ± 7.04% |  | 
4 | CCc1nc2c(NCCCN3CCN(c4cccc(C)c4C)CC3)ncnc2n1-c1ccc2c(c1)OCCO2 [Example 45, 9-(2,3-dihydrobenzo[b][1,4]dioxin-6-yl)-N-(3-(4-(2,3-dimethylphenyl)piperazin-1-yl)propyl)-8-ethyl-9H-purine-6-amine] |  | 0.014 µM | 0.151 µM | 0.049 µM | 97.64 ± 7.25% |  | 
5 | Cc1cccc(N2CCN(CCCNc3ncnc4c3nc(C)n4-c3ccc(F)cc3)CC2)c1C [Example 49, N-(3-(4-(2,3-dimethylphenyl)piperazin-1-yl)propyl)-9-(4-fluorophenyl)-8-methyl-9H-purine-6-amine] |  | 0.047 µM | 0.364 µM | 0.062 µM | 81.07 ± 7.11% |  | 
6 | CCc1nc2c(NCCCN3CCN(c4cccc(C)c4C)CC3)ncnc2n1-c1ccc(F)cc1 [Example 51, N-(3-(4-(2,3-dimethylphenyl)piperazin-1-yl)propyl)-8-ethyl-9-(4-fluorophenyl)-9H-purine-6-amine] |  | 0.066 µM | 0.423 µM | 0.019 µM | 99.44 ± 10.28% |  | 
7 | Cc1cccc(N2CCN(CCNc3ncnc4c3nc(C)n4-c3ccc(F)cc3)CC2)c1C [Example 55, N-(2-(4-(2,3-dimethylphenyl)piperazin-1-yl)ethyl)-9-(4-fluorophenyl)-8-methyl-9H-purine-6-amine] |  | 0.0311 µM | 0.129 µM | 0.518 µM | 70.53 ± 11.73% | 78.41 ± 8.11% | 
8 | CCc1nc2c(NCCN3CCN(c4cccc(C)c4C)CC3)ncnc2n1-c1ccc(F)cc1 [Example 56, N-(2-(4-(2,3-dimethylphenyl)piperazin-1-yl)ethyl)-8-ethyl-9-(4-fluorophenyl)-9H-purine-6-amine] |  | 0.0075 µM | 0.0765 µM | 0.146 µM | 71.41 ± 10.84% | 77.46 ± 12.27% | 
9 | Cc1cccc(N2CCN(CCCCNc3ncnc4c3nc(-c3ccccc3)n4-c3ccccc3)CC2)c1C [Example 68, N-(4-(4-(2,3-dimethylphenyl)piperazin-1-yl)butyl)-8,9-diphenyl-9H-purine-6-amine] |  | 0.0024 µM | 0.0047 µM | 0.146 µM | 78.66 ± 11.33% | 72.11 ± 7.63% | do not demonstrate efficacy on animal model
10 | Cc1cccc(N2CCN(CCCNc3ncnc4c3nc(C)n4-c3ccc(Cl)cc3)CC2)c1C [Example 70, 9-(4-chlorophenyl)-N-(3-(4-(2,3-dimethylphenyl)piperazin-1-yl)propyl)-8-methyl-9H-purine-6-amine] |  | 0.0543 µM | 0.316 µM | 0.0438 µM | 80.67 ± 12.19% | 53.34 ± 10.82% | 
11 | Cc1cccc(N2CCN(CCCNc3ncnc4c3nc(C)n4-c3ccc(C(F)(F)F)cc3)CC2)c1C [Example 76, N-(3-(4-(2,3-dimethylphenyl)piperazin-1-yl)propyl)-8-methyl-9-(4-(trifluoromethyl)phenyl)-9H-purine-6-amine] |  | 0.0431 µM | 0.453 µM | 0.128 µM | 79.98 ± 7.42% | 90.13 ± 4.29% | 
12 | Cc1cccc(N2CCN(CCCNc3ncnc4c3nc(-c3ccccc3)n4-c3ccc4c(c3)OCO4)CC2)c1C [Example 83, 9-(benzo[d][1,3]dioxol-5-yl)-N-(3-(4-(2,3-dimethylphenyl)piperazin-1-yl)propyl)-8-phenyl-9H-purine-6-amine] |  | 0.03 µM | 0.198 µM | 0.042 µM | 70.43 ± 6.15% |  | 
13 | CSc1ccc(-n2c(C)nc3c(NCCCN4CCN(c5cccc(C)c5C)CC4)ncnc32)cc1.Cl [Example 86, N-(3-(4-(2,3-dimethylphenyl)piperazin-1-yl)propyl)-8-methyl-9-(4-(methylthio)phenyl)-9H-purine-6-amine hydrochloride] |  | 0.025 µM | 0.376 µM | 0.064 µM | 66.53 ± 8.35% |  | 
14 | CCc1nc2c(NCCN3CCN(c4cccc(C)c4C)CC3)ncnc2n1-c1ccc(SC)cc1.Cl [Example 87, N-(2-(4-(2,3-dimethylphenyl)piperazin-1-yl)ethyl)-8-ethyl-9-(4-(methylthio)phenyl)-9H-purine-6-amine hydrochloride] |  | 0.0093 µM | 0.1 µM | 0.136 µM | 88.26 ± 6.05% |  | 
15 | Cc1cccc(N2CCN(CCNc3ncnc4c3nc(-c3cccs3)n4-c3ccccc3)CC2)c1C.Cl [Example 91, N-(2-(4-(2,3-dimethylphenyl)piperazin-1-yl)ethyl)-9-phenyl-8-(thiophen-2-yl)-9H-purine-6-amine hydrochloride] |  | 0.028 µM | 0.141 µM | 0.316 µM | 89.19 ± 9.17% |  | 
16 | Cc1cccc(N2CCN(CCCNc3ncnc4c3nc(-c3cccs3)n4-c3ccccc3)CC2)c1C.Cl [Example 92, N-(3-(4-(2,3-dimethylphenyl)piperazin-1-yl)propyl)-9-phenyl-8-(thiophen-2-yl)-9H-purine-6-amine hydrochloride] |  | 0.017 µM | 0.301 µM | 0.0389 µM | 85.86 ± 8.90% |  | 
17 | CNCCC(Oc1ccc(C(F)(F)F)cc1)c1ccccc1 (centres unmarked) [Prozac] | did not improve the anti-immobility effect |  |  |  |  |  | 
